In US20190282558A1, “Methods of Treating Zika Virus Infection” (Emergent Virology LLC, priority 2016, published 2019):
Like-named read-outs stand apart in the source and are kept apart here.

How the values were obtained:
[1] = test system: Zika virus, FSS 13025 strain (ZIKV, Cambodia 2010); assay: Yield reduction assay followed by plaque assay in Vero cells, ZIKV Cambodia 2010; format: cell-based; conditions: for IC50: Zika virus, 96 h, read-out: ZIKV, Cambodian 2010 IC50; for IC50 (summary in words): summary of Table 3
Procedure: (§1) The iminosugar compounds set forth in Table 4, below, were evaluated for antiviral activity against Zika virus, FSS 13025 strain (ZIKV, Cambodia 2010) and PR ABC strain (ZIKV, PR2015) in an yield reduction assay followed by a plaque assay.
In the yield reduction assay, Vero cells were seeded in 24-well plates and incubated overnight. The next day, serial dilutions of a given compound were prepared at 300 μM, 100 μM, 30 μM, 10 μM, and 3.0 μM. Growth medium was removed from the cells and the serial dilutions of the given compound were added in duplicate for one hour. Zika virus, FSS 13025 strain (ZIKV, Cambodia 2010) was added at a multiplicity of infection (MOI) of 0.01 for one hour. Growth medium was added to 1 mL and the cells were incubated for 4 days. Thereafter, cell supernatants were harvested, cleared of cell debris by centrifugation, and stored at −80° C. until further analysis for viral content in a plaque assay.
Plaque assays were performed by seeding Vero cells in 24-well plates and allowing the cells to adhere overnight. The next day each of the harvested supernatants from the yield-reduction assay were serially diluted 10-fold, growth medium was removed from the cells, and the adhered cells were infected with the dilutions of the supernatants for 1 h. Methylcellulose was added and the cells were incubated for 3 days. Plaques were visualized by staining the cell monolayer with crystal violet. Relative inhibition was calculated using IDBS XLFIT analysis program.
(§2) The duplicate titers for virus-only (vehicle control) were averaged and used as 0% inhibition. Efficacy data for the compounds were reported as the mean of the duplicates, including the standard deviation (SD) and coefficient of variation (% CV). FIGS. 2A, 2B, 3A, 3B, 4A, 4B, 5A, 5B, 6A, 6B, 7A, 7B, 8A, 8B, 9A, 9B, 10A, 10B, 11A, 11B, 12A, 12B, 13A, 13B, 14A, 14B, and 15 show the in vitro inhibitory effect of the iminosugar compounds against Zika virus, FSS 13025 strain, as set forth in Table 3 below.

[2] = In vitro cell cytotoxicity (CellTiter-Glo) in Vero cells; format: cell-based; conditions: African green monkey, 3-5 days, max concentration 500 or 1000 μM, * = average of two values
[3] = test system: Zika virus, PR ABC strain (ZIKV, PR2015); assay: Yield reduction assay followed by plaque assay in Vero cells, ZIKV PR2015; format: cell-based; conditions: 120 h, read-out: ZIKV, PR2015 IC50
Procedure: as §1
In the yield reduction assay, Vero cells were seeded in 24-well plates and incubated overnight. The next day, serial dilutions of a given compound were prepared at 200 μM, 100 μM, 20 μM, 4 μM, 0.8 μM, 0.16 μM, 0.03 μM, and 0.01 μM. Growth medium was removed from the cells and the serial dilutions of the given compound were added in duplicate for one hour. Zika virus, PR ABC strain (ZIKV, PR2015) was added at a multiplicity of infection (MOI) of 0.01 for one hour. Growth medium was added to 1 mL and the cells were incubated for 5 days. Thereafter, cell supernatants were harvested, cleared of cell debris by centrifugation, and stored at −80° C. until further analysis for viral content in a plaque assay.
Plaque assays were performed by seeding Vero cells in 24-well plates and allowing the cells to adhere overnight. The next day each of the harvested supernatants from the yield-reduction assay were serially diluted 10-fold, growth medium was removed from the cells, and the adhered cells were infected with the dilutions of the supernatants for 1 h. The cells were incubated with 0.8% carboxymethyl cellulose (CMC) for 3 days. At the end of the incubation, CMC overlay was removed, and the cells were permeabilized with an 80%/20% (V/V) mixture of ethanol and methanol for 10 min at −20° C. Plaques were visualized by performing an immunostaining assay with monoclonal 4G2 (ATCC) which was detected by HRP-conjugated goat anti-mouse antibody and visualized using HRP-conjugated goat anti-mouse polyclonal antibodies. Relative inhibition was calculated using IDBS XLFIT analysis program.
as §2

[4] = test system: Zika virus (isolate FSS13025 of the Asian genotype); assay: Efficacy against lethal Zika virus infection in AG129 mice; format: in vivo; conditions: 1E2 FFU Zika virus, 750 mg/kg once daily for three days by oral gavage, starting 16 hours after exposure, vs vehicle (FIG. 1)
Procedure: AG129 mice, aged 5-7 weeks, of both sexes were divided into groups of eight mice each. Mice were infected with 1E2 FFU of Zika virus (isolate FSS13025 of the Asian genotype). The mice were treated 16 hours after exposure. One group was administered 750 mg/kg of UV-4 once daily for three days. UV-4 was formulated in water and all doses were administered via oral gavage in a volume of 100 μL. A control group was administered vehicle (water) only. Predefined study endpoints were mortality, euthanasia due to severe morbidity, or termination after 10 days total. Weights were measured and health scores were determined daily.

[5] = Vero cells, MOI 0.01, 4 days, plaque assay of supernatants, * = average of multiple data points
[6] = Vero cells, MOI 0.01, 5 days, plaque assay with immunostaining, * = average of multiple data points

| Structure (SMILES) | IC50 [1, 5] [µM] | IC50 (summary in words) [1] | CC50 [2] [µM] | IC50 [3, 6] [µM] | survival [4] | IC50 ([1]; Vero) [µM] | IC50 ([3]; Vero) [µM] |
| --- | --- | --- | --- | --- | --- | --- | --- |
| COC(C)(C)CCCCCCCCN1C[C@H](O)[C@@H](O)[C@H](O)[C@H]1CO [Compound 2, (2R,3R,4R,5S)-2-(hydroxymethyl)-1-(9-methoxy-9-methyldecyl)piperidine-3,4,5-triol] | 10.1 | low micromolar activity | > 500 | 12.6 | – | – | – |
| COCCCCCCCCCN1C[C@H](O)[C@@H](O)[C@H](O)[C@H]1CO [UV-4, (2R,3R,4R,5S)-2-(hydroxymethyl)-1-(9-methoxynonyl)piperidine-3,4,5-triol] | – | – | > 1000 | – | statistically significant survival benefit | > 100 | > 100 |
| [N-]=[N+]=Nc1ccc(NCCCCCCN2C[C@H](O)[C@@H](O)[C@H](O)[C@H]2CO)c([N+](=O)[O-])c1 [UV-5, (2R,3R,4R,5S)-1-(6-((4-azido-2-nitrophenyl)amino)hexyl)-2-(hydroxymethyl)piperidine-3,4,5-triol] | – | low micromolar activity | 77.3 | – | – | 4.42 | 5.24 |
| CN1CCN(Cc2ccc(NCCCCCCN3C[C@H](O)[C@@H](O)[C@H](O)[C@H]3CO)c([N+](=O)[O-])c2)CC1 [Compound 15, (2R,3R,4R,5S)-2-(hydroxymethyl)-1-(6-((4-((4-methylpiperazin-1-yl)methyl)-2-nitrophenyl)amino)hexyl)piperidine-3,4,5-triol] | 12.1 | low micromolar activity | > 1000 | 150 | – | – | – |
| O=[N+]([O-])c1cc(N2CCOCC2)ccc1NCCCCCCN1C[C@H](O)[C@@H](O)[C@H](O)[C@H]1CO [Compound 8, (2R,3R,4R,5S)-2-(hydroxymethyl)-1-(6-((4-morpholino-2-nitrophenyl)amino)hexyl)piperidine-3,4,5-triol] | > 100 | – | > 1000 | > 100 | – | – | – |
| [N-]=[N+]=Nc1ccc([N+](=O)[O-])c(NCCCCCCN2C[C@H](O)[C@@H](O)[C@H](O)[C@H]2CO)c1 [Compound 12, (2R,3R,4R,5S)-1-(6-((5-azido-2-nitrophenyl)amino)hexyl)-2-(hydroxymethyl)piperidine-3,4,5-triol] | 38.7 | low micromolar activity | 140 | 94.6 | – | – | – |
| OC[C@@H]1[C@@H](O)[C@H](O)[C@@H](O)CN1CCCCCCCCC1CCCO1 (stereo partly drawn) [Compound 1, (2R,3R,4R,5S)-2-(hydroxymethyl)-1-(8-(tetrahydrofuran-2-yl)octyl)piperidine-3,4,5-triol] | 45.7 | – | > 500 | 69.6 | – | – | – |
| CN(C)Cc1ccc(NCCCCCCN2C[C@H](O)[C@@H](O)[C@H](O)[C@H]2CO)c([N+](=O)[O-])c1 [Compound 11, (2R,3R,4R,5S)-1-(6-((4-((dimethylamino)methyl)-2-nitrophenyl)amino)hexyl)-2-(hydroxymethyl)piperidine-3,4,5-triol] | > 100 | – | > 1000 | > 100 | – | – | – |
